Assay results from patent US12428389B2, “Diarylamide compound and application thereof” (Sunshine Lake Pharma Co., Ltd., priority 2019, dated 2025).

Columns and labels:
SD rats [1] = assay: single subcutaneous injection, diuretic effect in rats (metabolic cage); type: in vivo; conditions: 100 mg/kg subcutaneous
Procedure: The urine collection system was siliconized in advance to prevent urine loss. […] Solvent control: corn oil. The weight of urine was measured by the weight loss method and converted to volume (1 g≈1 mL). […] The peak of the diuretic effect was at 4 h after administration, and the duration of the diuretic effect was about 6-8 h. The results were shown as means±SEM, n=6. The urine osmotic pressure of the collected urine was measured by using a freezing point osmometer. […] The peak of action was at 4 h after administration, and returned to the level before administration at 6-8 h after administration. The results were shown as means±SEM, n=6. The urine samples were detected by using a urea kit for the level of urea in the urine. According to the previously measured urine volume, urine osmotic pressure and urea excretion per 2 h, the excretion of non-urea solutes per 2 h was calculated. […] The results were shown as means±SEM, n=6.

SD rats [2] = assay: single intragastric administration, diuretic effect in rats (metabolic cage); type: in vivo; conditions: 100 mg/kg, single (FIG. 5: intragastric)
Procedure: The urine collection system was siliconized in advance to prevent urine loss. […] The weight of urine was measured by the weight loss method and converted to volume (1 g≈1 mL). […] Urine volume began to rise at 2 h after administration, the peak of diuretic effect was at 4 h after administration, and the duration of diuretic effect was about 6-8 h. The results were shown as means±SEM, n=6. The urine osmotic pressure of the collected urine was measured by using a freezing point osmometer. […] The peak of action was at 4 h after administration, and recovered to the level before administration at 6-8 h after administration. The results were shown as means±SEM, n=6. Urine samples were detected by using a urea kit for the level of urea in the urine. According to the previously measured urine volume, urine osmotic pressure and urea excretion per 2 h, the excretion of non-urea solutes per 2 h was calculated. […] C57BL/6J mice, male, 6 in each group, weighing 20˜22 g, were taken. […] The urine collection system was siliconized in advance to prevent urine loss. […] Solvent control: CMC-Na. The weight of urine was measured by the weight loss method and converted to volume (1 g≈1 mL). […] The results were shown as means±SEM, n=6. The urine osmotic pressure of the collected urine was measured by using a freezing point osmometer. […] The results were shown as means±SEM, n=6. The urine samples were detected by using a urea kit for the level of urea in the urine. According to the previously measured urine volume, urine osmotic pressure and urea excretion per 2 h, the excretion of non-urea solutes per 2 h was calculated. […] The results were shown as means ±SEM, n=6.

MDCK cells = assay: MDCK cytotoxicity test, CCK-8 kit; type: cell-based; conditions: 7.8-125 μM, cultured for 12 h
Procedure: In order to study the cytotoxicity of the compound of the present invention, an MDCK cytotoxicity test was completed by using a CCK-8 kit. […]. In this study, a CCK-8 kit was used to detect the cytotoxicity of compounds: MDCK cell suspension in logarithmic growth phase was inoculated into a 96-well culture plate (1×10^4 cells/well/100 μL), and 100 μL of DMEM culture solution containing 10% fetal bovine serum, 100 U/mL penicillin and 100 μg/mL streptomycin was administrated to each well, then cultured in a 37° C., 5% CO2 incubator. When the cells were 70%-80% confluent, serum starvation was performed for 12 h for synchronization. […]. At the same time, blank wells (medium, CCK-8) and control wells (cells, dissolving medium of the same concentration compound, medium, CCK-8) were set up, 3 replicate wells per group. Cell survival rate was calculated: cell survival rate (%)=[(ODexperimental well−ODblank well)/(ODcontrol well−ODblank well)]×100%, wherein OD refers to the absorbance value of each well.

SD rats [3] = assay: toxicity after 7 days intragastric administration in rats (organ indexes, serum, kidney histology)
Procedure: Normal SD rats, 8 weeks old, male, 8 rats in each group were taken. The animals were placed in a metabolic cage and acclimatized for three days prior to the experiment, on a standard diet with free access to water. […] The administration was continued for 7 days. On the 7th day, the rats were anesthetized with sodium pentobarbital, and the liver and kidney were taken, weighed, and the kidney weight index and liver weight index were calculated. […] The kidney tissue was immersed in a fixative solution (4% paraformaldehyde), embedded with a paraffin embedding machine, and then cut into 6 μm thick paraffin sections by a paraffin microtome. […] The sections were observed under an optical microscope. The inner medulla, outer medulla, and cortex of each kidney were selected for comparative observation by an optical microscope. […] Blood was collected by cardiac puncture, then centrifuged to obtain serum, which was used to measure serum indexes by instruments.

SMILES: CC(=O)Nc1ccc(NC(=O)c2ccc([N+](=O)[O-])o2)cc1 [Example 3, N-(4-acetamidophenyl)-5-nitrofuran-2-carboxamide]
- duration of the diuretic effect (SD rats [1]): 6 to 8 h
- peak of action on urine osmotic pressure, time after administration (SD rats [1]): 4 h
- peak of the diuretic effect, time after administration (SD rats [1]): 4 h
- urine osmotic pressure returned to the level before administration, time after administration (SD rats [1]): 6 to 8 h
- duration of diuretic effect (SD rats [2]): 6 to 8 h
- peak of action on urine osmotic pressure, time after administration (SD rats [2]): 4 h
- peak of diuretic effect, time after administration (SD rats [2]): 4 h
- urine osmotic pressure recovered to the level before administration, time after administration (SD rats [2]): 6 to 8 h
- urine volume began to rise, time after administration (SD rats [2]): 2 h
- cytotoxic effect (cell survival rate) (MDCK cells): no significant cytotoxic effect
- serum urea level (SD rats [3]; 100 mg/kg intragastric every 8 h, vs control): no significant statistical difference
- inner medullary tubules, histology (SD rats [3]; HE sections): tubule swelling appeared in the inner medullary
- histological morphology of the kidney (SD rats [3]; HE sections, inner medulla, outer medulla, cortex): did not significantly affect
- Serum chlorine (SD rats [3]; n = 8): 101.7 ± 1.3 mM
- Serum cholesterol (SD rats [3]; n = 8): 1.59 ± 0.06 mM
- Serum glucose (SD rats [3]; n = 8): 9.4 ± 0.3 mM
- Serum high-density lipoprotein (SD rats [3]; n = 8): 0.71 ± 0.03 mM
- Serum low-density lipoprotein (SD rats [3]; n = 8): 0.34 ± 0.03 mM
- Serum potassium (SD rats [3]; n = 8): 4.8 ± 0.2 mM
- Serum sodium (SD rats [3]; n = 8): 147.3 ± 2.0 mM
- Serum triglyceride (SD rats [3]; n = 8): 0.68 ± 0.07 mM
